In patent US11634666B2, “Methods for spore removal comprising a polysorbate surfactant and cationic antimicrobial mixture” (3M INNOVATIVE PROPERTIES COMPANY, priority 2015, dated 2023):

System: C. sporogenes spores ATCC 3584
Test: In-vitro experiment to evaluate ability of test formulations to remove spores from skin like surfaces (Vitro-Skin, finger bag collection method)
Conditions: for log reduction of spores (in words): higher concentrations (1%)
Source text: The in-vitro method was designed to evaluate the removal of microbes from skin using a synthetic skin material from the cosmetic industry, Vitro-skin from IMS inc, Portland METhis method enables rapid screening of formulations for their propensity to promote release of microbes from skin and may be predictive of in-vivo activity.
The following materials were utilized. C. sporogenes spores ATCC 3584˜1.0×10^8 CFU/ml; Triton-X 100 sampling buffer (pH 7.4) Filter Sterilized: 0.4 g KH2PO4, 10.1 g Na2HPO4, 1 g Triton-X 100, and 1 L dH2O; D/E neutralizing broth; Fingers from disposable polyethylene gloves (VWR 32915-268); Sterile dH2O (WFI quality water); 3M AC Petrifilm; and 5 ml Falcon tubes; 1.5 ml EPI Centrifuge tubes; Petri Dishes; Vitro-Skin IMS Inc.; and double-sided tape.
The method included the following. Punched-out specified number of Vitro-Skin samples using the ¾″ punch. Attached punch-out Vitro-Skin samples to a Petri-dish or any other sterile flat surface using double-sided tape. Contaminated the Vitro-Skin samples accordingly with 10 μl of spores/spore prep (˜1×10^6 CFU/Sample). Used the pipette tip to spread spores over the surface and used a new pipette tip for each sample. Allowed the samples to dry (˜40 minutes). Placed three samples directly into separate finger bags containing 3 ml of triton-x 100 sampling solution or D/E neutralizing broth if one of the samples going to be tested contains antimicrobials. Used the “Finger bag collection method” below for each of the three recovery controls.
The Finger bag collection method was carried out as follows. First, a finger bag was cut from disposable gloves.
For the controls: Filled the finger bag with 3 ml of sampling solution. Placed contaminated Vitro-Skin sample into the finger bag containing sampling solution. Massaged finger bag for 1 minute using thumb and index finger. Removed aliquot of fluid from the finger bag and place into an appropriately labeled 1.5 ml centrifuge tube.
For the tested samples: Placed contaminated Vitro-Skin sample into a finger bag containing 3 ml of appropriate test solution. Massage in finger bag for 20 seconds. Removed the Vitro-Skin sample from the finger bag and place into a new finger bag containing 3 ml of sampling solution (Triton x-100 glove juice buffer or D/E neutralizing broth). Collected sample by using the finger bag collection method noted above. Repeat “Placed contaminated vitro-skin sample . . . ” to “Collected sample . . . ” for each of the test solutions.
For best statistical data each test solution was repeated 3 times. Heat treated appropriately labeled 1.5 ml centrifuge tubes containing aliquots of solution for 20 min at 80 C. Serially diluted samples in butterfield's buffer and plate 10^-1 to 10^-4 dilution on AC Petrifilm. Heat shocked, diluted, and plated spore stock day of experiment. Incubated Petrifilm in an anaerobic chamber at 37 C for 20-24 hours. Counted plates and analyzed data.

[1] = Example 3, added to water, all concentrations

Molecule | log reduction of spores (in words) (Example 3) | spore removal (in words) [1] | further results
Cc1cc(O)cc(C)c1Cl [PCMX, 4-chloro-3,5-dimethylphenol] | good log reduction of spores | – | –
Oc1cc(Cl)ccc1Oc1ccc(Cl)cc1Cl [Triclosan, 5-chloro-2-(2,4-dichlorophenoxy)phenol] | good log reduction of spores | – | –
N=C(NCCCCCCNC(=N)NC(=N)Nc1ccc(Cl)cc1)NC(=N)Nc1ccc(Cl)cc1.O=C(O)[C@H](O)[C@@H](O)[C@H](O)[C@H](O)CO.O=C(O)[C@H](O)[C@@H](O)[C@H](O)[C@H](O)CO [chlorhexidine gluconate, Chlorhexidine gluconate] | – | poor spore removal | spore removal (in words) (Example 6, Tables 6a/6b): poor spore removal
CCCCCCCCN=c1ccn(CCCCCCCCCCn2ccc(=NCCCCCCCC)cc2)cc1.Cl.Cl [octinidine, N,N′-(decane-1,10-diyldipyridin-1-yl-4-ylidene)dioctan-1-amine dihydrochloride] | – | – | spore removal (in words) (Example 3, higher concentration): unaffected
benzalkonium chloride | – | poor spore removal | –
